System: KRAS PDC tumor spheroids (HUVEC+MSC), viability
Test: Anticancer human tumor 254851-301-R-J1-PDC patient-derived colon carcinoma cell line growth inhibition [KRAS2]
Details: for viability, T/C: stronger effect = lower value
Summary of the method: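 KRAS-mutant tumor cells were grown as spheroids with HUVEC endothelial cells and human MSCs as stroma. Targeted agents were tested alone and with KRAS pathway inhibitors. Doses started at or near clinical Cmax, or 10 microM, descending half-log.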

[1] = curve of first compound, second compound 0.1 µM
[2] = curve of first compound, second compound 0.316 µM
[3] = curve of first compound, second compound 1 µM
[4] = curve of first compound, second compound 3.16 µM
[5] = second compound 0.1 µM, first compound 0.0316 µM
[6] = second compound 0.1 µM, first compound 0.1 µM
[7] = second compound 0.1 µM, first compound 0.316 µM
[8] = second compound 0.1 µM, first compound 1 µM
[9] = second compound 0.1 µM, first compound 3.16 µM
[10] = second compound 0.1 µM, first compound 10 µM
[11] = second compound 0.316 µM, first compound 0.0316 µM
[12] = second compound 0.316 µM, first compound 0.1 µM
[13] = second compound 0.316 µM, first compound 0.316 µM
[14] = second compound 0.316 µM, first compound 1 µM
[15] = second compound 0.316 µM, first compound 3.16 µM
[16] = second compound 0.316 µM, first compound 10 µM
[17] = second compound 1 µM, first compound 0.0316 µM
[18] = second compound 1 µM, first compound 0.1 µM
[19] = second compound 1 µM, first compound 0.316 µM
[20] = second compound 1 µM, first compound 1 µM
[21] = second compound 1 µM, first compound 3.16 µM
[22] = second compound 1 µM, first compound 10 µM
[23] = second compound 3.16 µM, first compound 0.0316 µM
[24] = second compound 3.16 µM, first compound 0.1 µM
[25] = second compound 3.16 µM, first compound 0.316 µM
[26] = second compound 3.16 µM, first compound 1 µM
[27] = second compound 3.16 µM, first compound 3.16 µM
[28] = second compound 3.16 µM, first compound 10 µM
[29] = curve of first compound, second compound 10 µM
[30] = second compound 10 µM, first compound 0.0316 µM
[31] = second compound 10 µM, first compound 0.1 µM
[32] = second compound 10 µM, first compound 0.316 µM
[33] = second compound 10 µM, first compound 1 µM
[34] = second compound 10 µM, first compound 3.16 µM
[35] = second compound 10 µM, first compound 10 µM
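Also: spheroids exposed to compounds for seven days before readout.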
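For viability, T/C in this document: 100% = DMSO vehicle control luminescence of the spheroids.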

CC(C)NCC(C(=O)N1CCN(c2ncnc3c2C(C)CC3O)CC1)c1ccc(Cl)cc1 (configuration not stated) + C=CC(=O)N1CCN(c2nc(OCC3CCCN3C)nc3c2CCN(c2cccc4cccc(C)c24)C3)CC1CC#N
IC50 (curve of first compound, second compound 0.0316 µM): > 10000 nM | IC50 [1]: > 10000 nM | IC50 [2]: > 10000 nM | IC50 [3]: > 10000 nM | IC50 [4]: 85.7 nM | viability, T/C (second compound 0.0316 µM, first compound 0.0316 µM): 96.9% | viability, T/C (second compound 0.0316 µM, first compound 0.1 µM): 96.1% | viability, T/C (second compound 0.0316 µM, first compound 0.316 µM): 87.4% | viability, T/C (second compound 0.0316 µM, first compound 1 µM): 98.2% | viability, T/C (second compound 0.0316 µM, first compound 3.16 µM): 95.8% | viability, T/C (second compound 0.0316 µM, first compound 10 µM): 94.7% | viability, T/C [5]: 107% | viability, T/C [6]: 101% | viability, T/C [7]: 99.9% | viability, T/C [8]: 77.1% | viability, T/C [9]: 89.9% | viability, T/C [10]: 92.1% | viability, T/C [11]: 97.7% | viability, T/C [12]: 93.9% | viability, T/C [13]: 92% | viability, T/C [14]: 95.9% | viability, T/C [15]: 88.8% | viability, T/C [16]: 87.6% | viability, T/C [17]: 95.4% | viability, T/C [18]: 98.5% | viability, T/C [19]: 91.6% | viability, T/C [20]: 86.3% | viability, T/C [21]: 97.9% | viability, T/C [22]: 86.2% | viability, T/C [23]: 62% | viability, T/C [24]: 48.2% | viability, T/C [25]: 37% | viability, T/C [26]: 18.1% | viability, T/C [27]: 22.6% | viability, T/C [28]: 8.5%

Cn1nccc1Nc1nccc(-c2cc3c(s2)C(C)(C)N(CCN2CCOCC2)C3=O)n1 + C=CC(=O)N1CCN(c2nc(=O)n(-c3c(C)ccnc3C(C)C)c3nc(-c4c(O)cccc4F)c(F)cc23)C(C)C1
IC50 [1]: 2760 nM | IC50 [2]: 3750 nM | IC50 [3]: 2570 nM | IC50 [4]: 1910 nM | IC50 [29]: 3100 nM | viability, T/C [5]: 87.5% | viability, T/C [6]: 94.5% | viability, T/C [7]: 94.5% | viability, T/C [8]: 96.8% | viability, T/C [9]: 44.1% | viability, T/C [10]: 4.13% | viability, T/C [11]: 102% | viability, T/C [12]: 92.2% | viability, T/C [13]: 102% | viability, T/C [14]: 88% | viability, T/C [15]: 58.2% | viability, T/C [16]: 4.04% | viability, T/C [17]: 95.5% | viability, T/C [18]: 91.2% | viability, T/C [19]: 91.9% | viability, T/C [20]: 79.5% | viability, T/C [21]: 43.5% | viability, T/C [22]: 5.08% | viability, T/C [23]: 73.7% | viability, T/C [24]: 82.7% | viability, T/C [25]: 78.6% | viability, T/C [26]: 77.6% | viability, T/C [27]: 28.6% | viability, T/C [28]: 3.74% | viability, T/C [30]: 97.1% | viability, T/C [31]: 97.1% | viability, T/C [32]: 79.7% | viability, T/C [33]: 74.9% | viability, T/C [34]: 51.5% | viability, T/C [35]: 4.35%

COC(=O)c1ccc2c(C(=Nc3ccc(N(C)C(=O)CN4CCN(C)CC4)cc3)c3ccccc3)c(O)[nH]c2c1 + COc1cc2nc(C)nc(NC(C)c3cc(N)cc(C(F)(F)F)c3)c2cc1OC1CCOC1
IC50 [1]: > 10000 nM | IC50 [2]: > 10000 nM | IC50 [3]: > 10000 nM | IC50 [4]: 3850 nM | IC50 [29]: 1240 nM | viability, T/C [5]: 90.9% | viability, T/C [6]: 102% | viability, T/C [7]: 89% | viability, T/C [8]: 85.3% | viability, T/C [9]: 98.7% | viability, T/C [10]: 87% | viability, T/C [11]: 88% | viability, T/C [12]: 95% | viability, T/C [13]: 92.5% | viability, T/C [14]: 86.1% | viability, T/C [15]: 90.2% | viability, T/C [16]: 90.4% | viability, T/C [17]: 86.9% | viability, T/C [18]: 90.5% | viability, T/C [19]: 83.3% | viability, T/C [20]: 77.7% | viability, T/C [21]: 80.1% | viability, T/C [22]: 73% | viability, T/C [23]: 93.2% | viability, T/C [24]: 85.9% | viability, T/C [25]: 88.9% | viability, T/C [26]: 80.2% | viability, T/C [27]: 59.2% | viability, T/C [28]: 6.26% | viability, T/C [30]: 82.7% | viability, T/C [31]: 87% | viability, T/C [32]: 77.8% | viability, T/C [33]: 61.3% | viability, T/C [34]: 1.22% | viability, T/C [35]: 0.29%

Cn1ncnc1[C@H]1c2n[nH]c(=O)c3cc(F)cc(c23)N[C@@H]1c1ccc(F)cc1 + C=CC(=O)N1CCN(c2nc(=O)n(-c3c(C)ccnc3C(C)C)c3nc(-c4c(O)cccc4F)c(F)cc23)C(C)C1
IC50 [1]: > 100 nM | IC50 [2]: > 100 nM | IC50 [3]: > 100 nM | IC50 [4]: > 100 nM | IC50 [29]: > 100 nM | viability, T/C (second compound 0.1 µM, first compound 0.000316 µM): 101% | viability, T/C (second compound 0.1 µM, first compound 0.001 µM): 99.8% | viability, T/C (second compound 0.1 µM, first compound 0.00316 µM): 99.2% | viability, T/C (second compound 0.1 µM, first compound 0.01 µM): 99.3% | viability, T/C [5]: 106% | viability, T/C [6]: 98.8% | viability, T/C (second compound 0.316 µM, first compound 0.000316 µM): 97.5% | viability, T/C (second compound 0.316 µM, first compound 0.001 µM): 97.9% | viability, T/C (second compound 0.316 µM, first compound 0.00316 µM): 96% | viability, T/C (second compound 0.316 µM, first compound 0.01 µM): 94.5% | viability, T/C [11]: 88.5% | viability, T/C [12]: 92.4% | viability, T/C (second compound 1 µM, first compound 0.000316 µM): 90% | viability, T/C (second compound 1 µM, first compound 0.001 µM): 93.9% | viability, T/C (second compound 1 µM, first compound 0.00316 µM): 98% | viability, T/C (second compound 1 µM, first compound 0.01 µM): 94.7% | viability, T/C [17]: 97.7% | viability, T/C [18]: 86.5% | viability, T/C (second compound 3.16 µM, first compound 0.000316 µM): 97% | viability, T/C (second compound 3.16 µM, first compound 0.001 µM): 103% | viability, T/C (second compound 3.16 µM, first compound 0.00316 µM): 94% | viability, T/C (second compound 3.16 µM, first compound 0.01 µM): 94.3% | viability, T/C [23]: 96.3% | viability, T/C [24]: 90.4% | viability, T/C (second compound 10 µM, first compound 0.000316 µM): 108% | viability, T/C (second compound 10 µM, first compound 0.001 µM): 99.4% | viability, T/C (second compound 10 µM, first compound 0.00316 µM): 102% | viability, T/C (second compound 10 µM, first compound 0.01 µM): 91.7% | viability, T/C [30]: 87.4% | viability, T/C [31]: 96.8%

COC(=O)c1ccc2c(C(=Nc3ccc(N(C)C(=O)CN4CCN(C)CC4)cc3)c3ccccc3)c(O)[nH]c2c1
viability, T/C (compound 0.0316 µM): 104% [middle of 5 runs] | viability, T/C (compound 0.1 µM): 99.1% [middle of 5 runs] | viability, T/C (compound 0.316 µM): 95.2% [middle of 5 runs] | viability, T/C (compound 1 µM): 97.2% [middle of 5 runs] | viability, T/C (compound 3.16 µM): 86.5% [middle of 5 runs] | viability, T/C (compound 10 µM): 95.5% [middle of 5 runs] | IC50 (curve of compound): > 10000 nM

CC1OCC2(CCN(c3cnc(Sc4ccnc(N)c4Cl)c(N)n3)CC2)C1N (configuration not stated) + CNCc1ccccc1-c1csc(C(C)Nc2nc(C)nc3cc(OC)c(OC)cc23)c1
IC50 [1]: > 10000 nM | IC50 [2]: > 10000 nM | IC50 [3]: > 10000 nM | IC50 [4]: < 31.6 nM | IC50 [29]: < 31.6 nM | viability, T/C [5]: 103% | viability, T/C [6]: 97.3% | viability, T/C [7]: 88.2% | viability, T/C [8]: 76.4% | viability, T/C [9]: 78.1% | viability, T/C [10]: 74.6% | viability, T/C [11]: 92.2% | viability, T/C [12]: 90.9% | viability, T/C [13]: 90.5% | viability, T/C [14]: 81.1% | viability, T/C [15]: 82.6% | viability, T/C [16]: 75.3% | viability, T/C [17]: 91.2% | viability, T/C [18]: 88.5% | viability, T/C [19]: 86.9% | viability, T/C [20]: 78.7% | viability, T/C [21]: 72.4% | viability, T/C [22]: 67.6% | viability, T/C [23]: 50.8% | viability, T/C [24]: 38.7% | viability, T/C [25]: 52.9% | viability, T/C [26]: 30.8% | viability, T/C [27]: 29.4% | viability, T/C [28]: 25.9% | viability, T/C [30]: 0.09% | viability, T/C [31]: 0.09% | viability, T/C [32]: 0.08% | viability, T/C [33]: 0.09% | viability, T/C [34]: 0.42% | viability, T/C [35]: 0.17%

From PubChem BioAssay AID1963868 (Molecular Pharmacology Branch, DTP, NCI, 2024)
